Source: patent publication US9113629B2, “4-amino-6-(4-substituted-phenyl)-picolinates and 6-amino-2-(4-substituted-phenyl)-pyrimidine-4-carboxylates and their use as herbicides” (DOW AGROSCIENCES LLC, priority 2013, dated 2015)
Where two headings read alike, the source gives them in different places.

What was measured:
[1] = test system: Key Grass and Sedge Weeds as well as Grass Crops; experiment: Post-emergent Test II herbicidal activity (Table 6); type: in vivo; details: post-emergence, 336 h
Procedure, shortened: (§1)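 Compounds, dissolved in 97:3 acetone/DMSO and diluted into an aqueous carrier containing crop oil concentrate and Triton X-155, are applied over the top of young plants at 187 L/ha. Injury is scored visually at 14 d, 0% meaning no effect and 100% complete kill.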

[2] = test system: Key Broadleaf Weed and Crop Species; experiment: Post-emergent Test II herbicidal activity (Table 5); type: in vivo; details: post-emergence, 336 h, 14 days after application; for pest or weed control at 70 g/ha: application rate 70 g ai/ha; for pest or weed control at 140 g/ha: application rate 140 g ai/ha
Procedure, shortened: as §1

[3] = ABUTH: velvetleaf (Abutilon theophrasti), read-out: Visual Growth Reduction (%) 14 Days After Application, ABUTH
[4] = AMARE: redroot pigweed (Amaranthus retroflexus), read-out: Visual Growth Reduction (%) 14 Days After Application, AMARE
[5] = BRSNN: oilseed-rape, canola (Brassica napus), read-out: Visual Growth Reduction (%) 14 Days After Application, BRSNN
[6] = CHEAL: lambsquarters (Chenopodium album), read-out: Visual Growth Reduction (%) 14 Days After Application, CHEAL
[7] = EPHHL: wild poinsettia (Euphorbia heterophylla), read-out: Visual Growth Reduction (%) 14 Days After Application, EPHHL
[8] = HELAN: sunflower (Helianthus annuus), read-out: Visual Growth Reduction (%) 14 Days After Application, HELAN
[9] = VIOTR: wild pansy (Viola tricolor), read-out: Visual Growth Reduction (%) 14 Days After Application, VIOTR
[10] = CYPES: yellow nutsedge (Cyperus esculentus), 70 g ai/ha, read-out: Visual Growth Reduction (%) 14 Days After Application, CYPES
[11] = CYPES: yellow nutsedge (Cyperus esculentus), 140 g ai/ha, read-out: Visual Growth Reduction (%) 14 Days After Application, CYPES
[12] = DIGSA: crabgrass (Digitaria sanguinalis), 70 g ai/ha, read-out: Visual Growth Reduction (%) 14 Days After Application, DIGSA
[13] = DIGSA: crabgrass (Digitaria sanguinalis), 140 g ai/ha, read-out: Visual Growth Reduction (%) 14 Days After Application, DIGSA
[14] = ECHCG: barnyardgrass (Echinochloa crus-galli), 70 g ai/ha, read-out: Visual Growth Reduction (%) 14 Days After Application, ECHCG
[15] = ECHCG: barnyardgrass (Echinochloa crus-galli), 140 g ai/ha, read-out: Visual Growth Reduction (%) 14 Days After Application, ECHCG
[16] = ORYSA: rice (Oryza sativa), crop, 70 g ai/ha, read-out: Visual Growth Reduction (%) 14 Days After Application, ORYSA
[17] = ORYSA: rice (Oryza sativa), crop, 140 g ai/ha, read-out: Visual Growth Reduction (%) 14 Days After Application, ORYSA
[18] = SETFA: giant foxtail (Setaria faberi), 70 g ai/ha, read-out: Visual Growth Reduction (%) 14 Days After Application, SETFA
[19] = SETFA: giant foxtail (Setaria faberi), 140 g ai/ha, read-out: Visual Growth Reduction (%) 14 Days After Application, SETFA
[20] = SORVU: grain sorghum (Sorghum vulgare), 70 g ai/ha, read-out: Visual Growth Reduction (%) 14 Days After Application, SORVU
[21] = SORVU: grain sorghum (Sorghum vulgare), 140 g ai/ha, read-out: Visual Growth Reduction (%) 14 Days After Application, SORVU
[22] = TRZSS (wheat, Triticum aestivum), crop, 70 g ai/ha, read-out: Visual Growth Reduction (%) 14 Days After Application, TRZSS
[23] = TRZSS (wheat, Triticum aestivum), crop, 140 g ai/ha, read-out: Visual Growth Reduction (%) 14 Days After Application, TRZSS
[24] = ZEAMX: maize, corn (Zea mays), crop, 70 g ai/ha, read-out: Visual Growth Reduction (%) 14 Days After Application, ZEAMX
[25] = ZEAMX: maize, corn (Zea mays), crop, 140 g ai/ha, read-out: Visual Growth Reduction (%) 14 Days After Application, ZEAMX

SMILES | pest or weed control at 70 g/ha [2, 3] [%] | pest or weed control at 140 g/ha [2, 3] [%] | pest or weed control at 70 g/ha [2, 4] [%] | pest or weed control at 140 g/ha [2, 4] [%] | pest or weed control at 70 g/ha [2, 5] [%] | pest or weed control at 140 g/ha [2, 5] [%] | pest or weed control at 70 g/ha [2, 6] [%] | pest or weed control at 140 g/ha [2, 6] [%] | pest or weed control at 70 g/ha [2, 7] [%] | pest or weed control at 140 g/ha [2, 7] [%] | pest or weed control at 70 g/ha [2, 8] [%] | pest or weed control at 140 g/ha [2, 8] [%] | pest or weed control at 70 g/ha [2, 9] [%] | pest or weed control at 140 g/ha [2, 9] [%] | melting point | pest or weed control at 70 g/ha [1, 10] [%] | pest or weed control at 140 g/ha [1, 11] [%] | pest or weed control at 70 g/ha [1, 12] [%] | pest or weed control at 140 g/ha [1, 13] [%] | pest or weed control at 70 g/ha [1, 14] [%] | also measured
C#Cc1ccc(-c2nc(N)c(OC)c(C(=O)O)n2)c(F)c1F [Compound 154] | 0 to 29 | 45 to 59 | 0 to 29 | 0 to 29 | 0 to 29 | 60 to 74 | 0 to 29 | 45 to 59 | 95 to 100 | 95 to 100 | 75 to 84 | 75 to 84 | 0 to 29 | 0 to 29 | 142 to 144 °C | – | – | – | – | – | pest or weed control at 70 g/ha ([1]; Triticum aestivum, TRZSS (wheat), application rate 70 g ai/ha, read-out: Visual Growth Reduction (%) 14 Days After Application, TRZSS): 0 to 29%; pest or weed control at 140 g/ha ([1]; Triticum aestivum, TRZSS (wheat), application rate 140 g ai/ha, read-out: Visual Growth Reduction (%) 14 Days After Application, TRZSS): 0 to 29%; pest or weed control at 70 g/ha ([1]; CYPES: yellow nutsedge (Cyperus esculentus), application rate 70 g ai/ha, read-out: Visual Growth Reduction (%) 14 Days After Application, CYPES): 0 to 29%; pest or weed control at 140 g/ha ([1]; CYPES: yellow nutsedge (Cyperus esculentus), application rate 140 g ai/ha, read-out: Visual Growth Reduction (%) 14 Days After Application, CYPES): 0 to 29%; pest or weed control at 70 g/ha ([1]; DIGSA: crabgrass (Digitaria sanguinalis), application rate 70 g ai/ha, read-out: Visual Growth Reduction (%) 14 Days After Application, DIGSA): 0 to 29%; pest or weed control at 140 g/ha ([1]; DIGSA: crabgrass (Digitaria sanguinalis), application rate 140 g ai/ha, read-out: Visual Growth Reduction (%) 14 Days After Application, DIGSA): 0 to 29%; pest or weed control at 70 g/ha ([1]; ECHCG: barnyardgrass (Echinochloa crus-galli), application rate 70 g ai/ha, read-out: Visual Growth Reduction (%) 14 Days After Application, ECHCG): 45 to 59%; pest or weed control at 140 g/ha ([1]; ECHCG: barnyardgrass (Echinochloa crus-galli), application rate 140 g ai/ha, read-out: Visual Growth Reduction (%) 14 Days After Application, ECHCG): 45 to 59%; pest or weed control at 70 g/ha ([1]; ORYSA: rice (Oryza sativa), application rate 70 g ai/ha, read-out: Visual Growth Reduction (%) 14 Days After Application, ORYSA): 0 to 29%; pest or weed control at 140 g/ha ([1]; ORYSA: rice (Oryza sativa), application rate 140 g ai/ha, read-out: Visual Growth Reduction (%) 14 Days After Application, ORYSA): 0 to 29%; pest or weed control at 70 g/ha ([1]; SETFA: giant foxtail (Setaria faberi), application rate 70 g ai/ha, read-out: Visual Growth Reduction (%) 14 Days After Application, SETFA): 0 to 29%; pest or weed control at 140 g/ha ([1]; SETFA: giant foxtail (Setaria faberi), application rate 140 g ai/ha, read-out: Visual Growth Reduction (%) 14 Days After Application, SETFA): 0 to 29%; pest or weed control at 70 g/ha ([1]; SORVU: grain sorghum (Sorghum vulgare), application rate 70 g ai/ha, read-out: Visual Growth Reduction (%) 14 Days After Application, SORVU): 0 to 29%; pest or weed control at 140 g/ha ([1]; SORVU: grain sorghum (Sorghum vulgare), application rate 140 g ai/ha, read-out: Visual Growth Reduction (%) 14 Days After Application, SORVU): 0 to 29%; pest or weed control at 70 g/ha ([1]; ZEAMX: maize, corn (Zea mays), application rate 70 g ai/ha, read-out: Visual Growth Reduction (%) 14 Days After Application, ZEAMX): 0 to 29%; pest or weed control at 140 g/ha ([1]; ZEAMX: maize, corn (Zea mays), application rate 140 g ai/ha, read-out: Visual Growth Reduction (%) 14 Days After Application, ZEAMX): 0 to 29%
Nc1c(F)c(-c2ccc(I)c(F)c2)nc(C(=O)O)c1Cl [Compound 157] | 85 to 94 | 85 to 94 | 95 to 100 | 95 to 100 | 95 to 100 | 95 to 100 | 95 to 100 | 95 to 100 | 95 to 100 | 95 to 100 | 95 to 100 | 95 to 100 | 95 to 100 | 95 to 100 | 140 to 150 °C (dec.) | 45 to 59 | 45 to 59 | 75 to 84 | 85 to 94 | 95 to 100 | pest or weed control at 140 g/ha [1, 15]: 95 to 100%; pest or weed control at 70 g/ha [1, 16]: 0 to 29%; pest or weed control at 140 g/ha [1, 17]: 0 to 29%; pest or weed control at 70 g/ha [1, 18]: 95 to 100%; pest or weed control at 140 g/ha [1, 19]: 95 to 100%; pest or weed control at 70 g/ha [1, 20]: 85 to 94%; pest or weed control at 140 g/ha [1, 21]: 95 to 100%; pest or weed control at 70 g/ha [1, 22]: 45 to 59%; pest or weed control at 140 g/ha [1, 23]: 45 to 59%; pest or weed control at 70 g/ha [1, 24]: 95 to 100%; pest or weed control at 140 g/ha [1, 25]: 95 to 100%
COC(=O)c1nc(-c2ccc(C#N)c(F)c2F)c(F)c(N)c1Cl [Compound 160] | 30 to 44 | 45 to 59 | 85 to 94 | 95 to 100 | 0 to 29 | 0 to 29 | 60 to 74 | 75 to 84 | 45 to 59 | 60 to 74 | 85 to 94 | 95 to 100 | 0 to 29 | 0 to 29 | 163 to 164 °C | 0 to 29 | 0 to 29 | 0 to 29 | 0 to 29 | 0 to 29 | pest or weed control at 140 g/ha [1, 15]: 0 to 29%; pest or weed control at 70 g/ha [1, 16]: 0 to 29%; pest or weed control at 140 g/ha [1, 17]: 0 to 29%; pest or weed control at 70 g/ha [1, 18]: 0 to 29%; pest or weed control at 140 g/ha [1, 19]: 0 to 29%; pest or weed control at 70 g/ha [1, 20]: 0 to 29%; pest or weed control at 140 g/ha [1, 21]: 0 to 29%; pest or weed control at 70 g/ha [1, 22]: 0 to 29%; pest or weed control at 140 g/ha [1, 23]: 0 to 29%; pest or weed control at 70 g/ha [1, 24]: 0 to 29%; pest or weed control at 140 g/ha [1, 25]: 0 to 29%
